In patent publication US20250000843A1, “LIGNAN-INSPIRED COMPOUNDS, METHODS OF MAKING, AND USING THEREOF” (IOWAIBO, INC., priority 2023, published 2025):

Key:
Type in all cases: cell-based
[1] = test system: PC3, a human prostate cancer cell line; test: MTT toxicity assay in PC3 prostate cancer cells
Experimental: Toxicity of the dibenzyl butyl lactone derivative (3-[(3,4-dimethoxyphenyl)cyclopentyl], 4-[(3-hydroxyphenol)methyl]oxolan-2-one) in breast cancer cells was evaluated using MTT assay. The MTT toxicity test is a colorimetric assay to measure cells' metabolic activity by serving as a substrate of cellular enzymes that reduce the tetrazolium orange dye, MTT (3-(4,5-Dimethylthiazol-2-yl)-2,5-diphenyltetrazolium bromide) to its insoluble, formazan, giving a purple color. The rate of conversion is directly proportional to cells' mitochondrial metabolic activity via NAD (P) H-dependent cellular oxidoreductase enzymes and serves as a surrogate marker of cell viability.
Cells previously expanded were seeded in 96 well plates at 1.9×10^5 and 9.6×10^4 cells/plate for 24- and 72-hours treatment respectively. This concentration is known to show the best window for the MTT assay, with better sensitivity and low variability.
5 mg of powdered enterolactone, dibenzyl butyl lactone derivative enantiomer A, and dibenzyl butyl lactone derivative enantiomer B were dissolved in 500 μl of DMSO at room temperature. Eight-point curves, ⅓ dilutions (highest concentration 125 μM), were prepared.
Twenty-four hours following the seeding process, the cells were washed once with phosphate buffered saline (PBS) and treated with the respective compounds in cell culture media. Each condition was tested in triplicates. For positive and negative controls, 8 mM methyl methane sulfonate (MMS) and DMSO 100% were used respectively.
Following compound addition, the plates were incubated for 24 and 72 hours. After the treatment period, cells were washed twice with PBS and media was replaced with MTT reagent at 0.5 mg/ml in Dulbecco's modified Eagle medium (DMEM) without phenol red. The plates were gently shaken and incubated for 4 hours. After the incubation the medium was removed and replaced by DMSO. The plates were gently shaken to solubilize the formazan crystals. Absorbance was measured using an Envision multiplate reader at a wavelength of 570 nm.
Toxicity of the dibenzyl butyl lactone derivative (3-[(3,4-dimethoxyphenyl)cyclopentyl], 4-[(3-hydroxyphenol)methyl]oxolan-2-one) in prostate cancer cells was evaluated using MTT assay. The same methods as those used in Example 2 were employed, except the cell line used was PC3, a human prostate cancer cell line, and cell cultures were established in Kaighn's modification of Ham's […] medium.
MTT assay results are shown in Tables 16-21 and expressed as the percentage of cell death after treatment.

[2] = test system: human induced pluripotent stem (iPS) cells
Experimental: The dibenzyl butyl lactone derivative enantiomer A and B were compared to enterolactone and tested to determine toxicity using a human pluripotent stem (hPS) cell-based assay that predicts the developmental toxicity potential. […] The current study was conducted using human induced pluripotent stem (iPS) cells.
The impact of test article exposure on ornithine and cystine metabolism in human induced pluripotent stem (iPS) cells was measured for three test articles (dibenzyl butyl lactone derivative enantiomer A, dibenzyl butyl lactone derivative enantiomer B, and enterolactone) and prediction of the potential for developmental toxicity was made through application of the hPS cell-based assay. Exposure spanned a range of eight treatment levels per test article ranging from 0.03-100 μM.
The observed decrease in the o/c ratio following exposure to each test article is indicative of the potential for developmental toxicity and/or embryo lethality in vivo at or above the dTP concentration. FIGS. 15A-C show the o/c ratio of dibenzyl butyl lactone derivative enantiomer A (FIG. 15A), dibenzyl butyl lactone derivative enantiomer B (FIG. 15B), and (+/−) enterolactone (FIG. 15C). The graphs in FIGS. 15A-C show the cell viability and o/c/ ratio over concentrations of 0.03-100 μM with the straight horizontal line illustrating the developmental toxicity threshold of 0.85.

telomerase = telomerase (Homo sapiens, UniProt O14746); test: Q-TRAP telomerase activity in MCF7 breast cancer cells; set-up: allow the enzymatic addition of telomeric DNA repeats by endogenous telomerase; endogenous in cells
telomerase, sequence (O14746 whole entry): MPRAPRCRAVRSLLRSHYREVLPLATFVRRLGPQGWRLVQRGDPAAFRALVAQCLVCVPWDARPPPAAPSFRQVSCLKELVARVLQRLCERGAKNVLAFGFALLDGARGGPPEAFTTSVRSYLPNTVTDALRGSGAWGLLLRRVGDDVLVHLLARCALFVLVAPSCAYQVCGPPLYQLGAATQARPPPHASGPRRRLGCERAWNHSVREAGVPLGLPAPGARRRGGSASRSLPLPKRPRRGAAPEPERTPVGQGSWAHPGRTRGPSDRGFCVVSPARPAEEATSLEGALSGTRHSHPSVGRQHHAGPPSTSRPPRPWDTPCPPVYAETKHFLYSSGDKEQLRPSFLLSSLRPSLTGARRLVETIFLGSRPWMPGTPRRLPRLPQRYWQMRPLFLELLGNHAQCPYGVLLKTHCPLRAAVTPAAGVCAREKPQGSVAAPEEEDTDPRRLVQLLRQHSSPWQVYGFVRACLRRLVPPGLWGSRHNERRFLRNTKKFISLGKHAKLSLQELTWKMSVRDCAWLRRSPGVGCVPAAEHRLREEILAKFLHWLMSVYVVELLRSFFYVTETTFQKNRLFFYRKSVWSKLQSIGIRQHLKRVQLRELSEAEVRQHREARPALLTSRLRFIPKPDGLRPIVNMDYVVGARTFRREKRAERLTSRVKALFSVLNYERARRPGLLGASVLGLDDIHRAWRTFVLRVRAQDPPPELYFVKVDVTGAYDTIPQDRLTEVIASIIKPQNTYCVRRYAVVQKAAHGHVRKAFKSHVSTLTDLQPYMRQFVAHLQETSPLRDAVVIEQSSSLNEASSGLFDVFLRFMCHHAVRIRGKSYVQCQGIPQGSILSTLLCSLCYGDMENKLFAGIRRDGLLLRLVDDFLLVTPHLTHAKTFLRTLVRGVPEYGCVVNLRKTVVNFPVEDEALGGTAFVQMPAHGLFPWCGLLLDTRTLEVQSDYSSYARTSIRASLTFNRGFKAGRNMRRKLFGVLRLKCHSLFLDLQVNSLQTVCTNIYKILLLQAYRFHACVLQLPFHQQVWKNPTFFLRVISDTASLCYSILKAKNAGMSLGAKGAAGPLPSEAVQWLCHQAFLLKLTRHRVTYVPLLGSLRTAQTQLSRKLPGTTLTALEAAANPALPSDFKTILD
telomerase, sequence (O60832 whole entry partner): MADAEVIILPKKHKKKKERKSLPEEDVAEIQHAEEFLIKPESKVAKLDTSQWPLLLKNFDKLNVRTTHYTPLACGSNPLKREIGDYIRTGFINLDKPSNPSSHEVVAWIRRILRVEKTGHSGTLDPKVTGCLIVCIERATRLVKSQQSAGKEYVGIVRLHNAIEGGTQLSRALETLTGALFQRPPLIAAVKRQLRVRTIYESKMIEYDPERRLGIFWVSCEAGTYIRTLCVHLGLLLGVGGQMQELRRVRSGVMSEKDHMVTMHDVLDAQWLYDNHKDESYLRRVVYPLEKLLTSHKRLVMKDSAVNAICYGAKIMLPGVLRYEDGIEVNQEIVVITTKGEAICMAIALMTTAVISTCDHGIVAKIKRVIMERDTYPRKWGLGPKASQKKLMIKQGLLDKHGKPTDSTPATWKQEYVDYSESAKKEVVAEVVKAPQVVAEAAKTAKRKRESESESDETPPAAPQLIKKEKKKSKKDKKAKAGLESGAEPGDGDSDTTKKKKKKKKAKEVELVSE
telomerase, sequence (Q9NPE3 whole entry partner): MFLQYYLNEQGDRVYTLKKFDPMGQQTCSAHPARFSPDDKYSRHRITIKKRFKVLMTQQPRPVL
telomerase, sequence (Q9NX24 whole entry partner): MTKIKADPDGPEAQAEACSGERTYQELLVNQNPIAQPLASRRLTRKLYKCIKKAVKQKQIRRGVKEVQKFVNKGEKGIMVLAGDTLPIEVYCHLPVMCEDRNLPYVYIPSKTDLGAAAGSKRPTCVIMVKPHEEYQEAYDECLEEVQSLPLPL
telomerase, sequence (Q9NY12 whole entry partner): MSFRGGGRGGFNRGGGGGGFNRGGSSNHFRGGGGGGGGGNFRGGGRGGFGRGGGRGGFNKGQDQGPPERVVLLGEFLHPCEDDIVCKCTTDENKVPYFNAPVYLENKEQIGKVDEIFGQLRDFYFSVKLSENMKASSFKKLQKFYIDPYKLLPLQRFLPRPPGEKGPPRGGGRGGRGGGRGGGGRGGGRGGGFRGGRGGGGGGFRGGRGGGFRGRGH
telomerase, sequence (Q9BUR4 whole entry partner): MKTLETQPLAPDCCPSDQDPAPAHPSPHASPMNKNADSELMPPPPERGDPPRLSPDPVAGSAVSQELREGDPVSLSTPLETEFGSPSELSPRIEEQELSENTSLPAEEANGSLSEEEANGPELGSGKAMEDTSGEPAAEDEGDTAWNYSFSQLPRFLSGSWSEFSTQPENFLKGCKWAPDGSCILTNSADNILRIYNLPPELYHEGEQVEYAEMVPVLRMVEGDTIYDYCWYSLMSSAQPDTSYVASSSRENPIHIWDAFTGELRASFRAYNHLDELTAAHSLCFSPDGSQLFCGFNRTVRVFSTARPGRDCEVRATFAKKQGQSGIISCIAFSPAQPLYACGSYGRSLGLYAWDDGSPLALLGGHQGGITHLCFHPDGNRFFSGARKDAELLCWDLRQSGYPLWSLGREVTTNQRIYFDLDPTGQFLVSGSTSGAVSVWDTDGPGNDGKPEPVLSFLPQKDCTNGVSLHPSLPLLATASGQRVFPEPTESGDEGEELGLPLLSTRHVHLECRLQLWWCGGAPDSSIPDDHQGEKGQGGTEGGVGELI

## O=C1OC[C@H](Cc2cccc(O)c2)[C@H]1Cc1cccc(O)c1 (racemic) [Enterolactone, reference compound]
[1]; PC3, 24 hours, 0.06 μM
  Cell death #1 (%): −3.37%
  Cell death #2 (%): −20.79%
  Cell death #3 (%): −22.43%
  Cell death (%) MEAN: −15.53%
[1]; PC3, 24 hours, 0.17 μM
  Cell death #1 (%): −12.56%
  Cell death #2 (%): −5.41%
  Cell death #3 (%): −10.24%
  Cell death (%) MEAN: −9.40%
[1]; PC3, 24 hours, 0.51 μM
  Cell death #1 (%): −29.78%
  Cell death #2 (%): −35.88%
  Cell death #3 (%): −8.98%
  Cell death (%) MEAN: −24.88%
[1]; PC3, 24 hours, 1.54 μM
  Cell death #1 (%): −30.56%
  Cell death #2 (%): −47.58%
  Cell death #3 (%): −25.82%
  Cell death (%) MEAN: −34.65%
[1]; PC3, 24 hours, 4.63 μM
  Cell death #1 (%): −41.49%
  Cell death #2 (%): −38.59%
  Cell death #3 (%): −32.20%
  Cell death (%) MEAN: −37.42%
[1]; PC3, 24 hours, 13.89 μM
  Cell death #1 (%): −33.85%
  Cell death #2 (%): −41.29%
  Cell death #3 (%): −40.62%
  Cell death (%) MEAN: −38.59%
[1]; PC3, 24 hours, 41.67 μM
  Cell death #1 (%): −32.30%
  Cell death #2 (%): −17.98%
  Cell death #3 (%): −35.59%
  Cell death (%) MEAN: −28.62%
[1]; PC3, 24 hours, 125.00 μM
  Cell death #1 (%): 19.65%
  Cell death #2 (%): 12.01%
  Cell death #3 (%): 15.10%
  Cell death (%) MEAN: 15.59%
[1]; PC3, 72 hours, 0.06 μM
  Cell death #1 (%): −39.68%
  Cell death #2 (%): −40.18%
  Cell death #3 (%): −37.32%
  Cell death (%) MEAN: −39.06%
[1]; PC3, 72 hours, 0.17 μM
  Cell death #1 (%): −49.03%
  Cell death #2 (%): −43.54%
  Cell death #3 (%): −39.93%
  Cell death (%) MEAN: −44.17%
[1]; PC3, 72 hours, 0.51 μM
  Cell death #1 (%): −71.45%
  Cell death #2 (%): −77.56%
  Cell death #3 (%): −73.70%
  Cell death (%) MEAN: −74.24%
[1]; PC3, 72 hours, 1.54 μM
  Cell death #1 (%): −63.98%
  Cell death #2 (%): −69.71%
  Cell death #3 (%): −46.41%
  Cell death (%) MEAN: −60.03%
[1]; PC3, 72 hours, 4.63 μM
  Cell death #1 (%): −74.57%
  Cell death #2 (%): −70.83%
  Cell death #3 (%): −81.17%
  Cell death (%) MEAN: −75.52%
[1]; PC3, 72 hours, 13.89 μM
  Cell death #1 (%): −60.86%
  Cell death #2 (%): −51.02%
  Cell death #3 (%): −63.98%
  Cell death (%) MEAN: −58.62%
[1]; PC3, 72 hours, 41.67 μM
  Cell death #1 (%): −35.45%
  Cell death #2 (%): −32.21%
  Cell death #3 (%): −34.95%
  Cell death (%) MEAN: −34.20%
[1]; PC3, 72 hours, 125.00 μM
  Cell death #1 (%): 35.94%
  Cell death #2 (%): 32.46%
  Cell death #3 (%): 22.11%
  Cell death (%) MEAN: 30.17%
[2]
  cytotoxicity compared with the other test articles: less cytotoxic than dibenzyl butyl lactone derivative enantiomers A and B
[2]; human
  TP Concentration: 230.8 µM
  dTP Concentration: 21.8 µM
  similarity of dTP concentrations between all three compounds: ≤ 2 fold
telomerase; MCF7, 24 h
  IC50: > 40 µM
telomerase; MCF7, 48 h
  IC50: > 40 µM
telomerase; MCF7, 72 h
  IC50: > 40 µM
telomerase; MCF7, Q-TRAP
  telomerase activity following treatment as compared to control (untreated) groups: no significant difference in telomerase activity
